In PubChem BioAssay (NCI):
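These data come from cells grown in 96-well plates and exposed to compound for 48 hours at five concentrations. Definition used: TGI = concentration required for complete inhibition of growth.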

Tests used:
Assay in all cases: NCI anticancer screen, dose series, 48 h
LOX IMVI melanoma = tested on: LOX IMVI melanoma
UACC-62 melanoma = tested on: UACC-62 melanoma
IGROV1 ovarian = tested on: IGROV1 ovarian
UACC-257 melanoma = tested on: UACC-257 melanoma
TK-10 renal = tested on: TK-10 renal
SK-MEL-2 melanoma = tested on: SK-MEL-2 melanoma
CCRF-CEM leukemia = tested on: CCRF-CEM leukemia
RPMI-8226 leukemia = tested on: RPMI-8226 leukemia
DMS 114 small cell lung = tested on: DMS 114 small cell lung
SNB-78 CNS = tested on: SNB-78 CNS
DLD-1 colon = tested on: DLD-1 colon
M19-MEL melanoma = tested on: M19-MEL melanoma

Compound	TGI (LOX IMVI melanoma) [µM]	TGI (UACC-62 melanoma) [µM]	TGI (IGROV1 ovarian) [µM]	TGI (UACC-257 melanoma) [µM]	TGI (TK-10 renal) [µM]	TGI (SK-MEL-2 melanoma) [µM]	TGI (CCRF-CEM leukemia) [µM]	TGI (RPMI-8226 leukemia) [µM]	TGI (DMS 114 small cell lung) [µM]	TGI (SNB-78 CNS) [µM]	TGI (DLD-1 colon) [µM]	TGI (M19-MEL melanoma) [µM]
OC1(c2ccc3ccccc3c2)c2ccc3ccccc3c2C2=NCCN21 (centres undefined)	> 100	> 100	> 100	> 100	> 100	> 100	> 100	> 100	–	–	–	–
O=c1cc(-c2nc3ccccc3[nH]2)[nH]c2nc(-c3nc4ccccc4[nH]3)cc(-c3ccc(Cl)cc3)c12	31.8	33.2	25.5	69.3	49	30.5	91.6	44	–	–	–	–
CCOC(=O)[C@H]1C[C@]23CN(C(=O)OC(C)(C)C)CC[C@H]2CCC2(SCCCS2)[C@@H]3N1C	> 100	> 100	> 100	77.5	81.2	63.3	> 100	54.4	–	–	–	–
Cc1ccc(S(=O)(=O)NCCSS(=O)(=O)c2ccc(C)cc2)cc1	53.5	–	–	> 100	> 100	–	> 100	–	–	–	–	–
CCOc1cc(NC(C)=O)ccc1C(=O)NN1C(=O)CSC1c1ccc(O)c(OC)c1 (centres undefined)	> 100	> 100	> 100	> 100	39.3	> 100	> 100	> 100	–	–	–	–
C=CCC1=CC2(OC)C(=O)C(OC)(OC)C1C1C(OC)(OC)C(=O)C(OC)=CC12CC=C (centres undefined)	> 100	> 100	> 100	> 100	> 100	> 100	> 100	> 100	–	–	–	–
CCOc1ccc2c(c1)NC(=O)C(C1OC(c3ccccc3)=CC1=O)S2 (centres undefined)	67	35.1	53.2	> 100	> 100	> 100	10.9	30.5	–	–	–	–
FC(F)(F)C1=NC(=NNc2nnc(-c3ccccc3)c(-c3ccccc3)n2)N=C(C(F)(F)F)C1	> 100	30	> 100	> 100	–	> 100	> 100	> 100	28.2	> 100	> 100	> 68.4
CC(C)Cc1cccc(C(C)C)c1NC(=O)CCC(=O)N/N=C1\C(=N/NC(=O)CCC(=O)Nc2c(C(C)C)cccc2C(C)C)C(c2ccc3c(c2)OCO3)Oc2ccccc21 (centres undefined)	> 100	> 100	> 100	> 100	> 100	> 100	> 100	> 100	> 100	> 100	> 100	> 100
CN(C)CCC(C(=O)C(C)(C)C)c1ccccn1 (centres undefined)	> 100	> 100	> 100	> 100	> 100	> 100	> 100	> 100	–	–	–	–
C=C1C(=O)OC2/C=C(\C)CC(O)/C=C(/CO)CC(OC(=O)/C(C)=C/C)C12 (centres undefined)	–	274	121	202	–	344	76	17.4	30.5	319	139	92
C[C@H](O)C(=O)SC[C@H](NC(=O)CC[C@@H](N)C(=O)O)C(=O)NCC(=O)O	> 100	> 100	> 100	> 100	> 100	> 100	> 100	> 100	> 100	–	> 100	> 100
